From ChEMBL document CHEMBL3885881, “DrugMatrix”

Organism: Rattus norvegicus
Assay: DrugMatrix - Regimen: Daily Repeat
Assay type: toxicity, organism-based, Sprague-Dawley
Design: regimen Daily Repeat, gender Male, age 6-8 weeks
Conditions: in vivo, po, route oral GAVAGE, […]; for ABSOLUTE BASOPHIL / ABSOLUTE EOSINOPHIL / ABSOLUTE LYMPHOCYTE / ABSOLUTE MONOCYTE / ABSOLUTE SEGMENTED NEUTROPHIL / BASOPHIL / EOSINOPHIL / ERYTHROCYTE COUNT / HEMATOCRIT / HEMOGLOBIN / LEUKOCYTE COUNT / LYMPHOCYTE / MEAN CORPUSCULAR HEMOGLOBIN / MEAN CORPUSCULAR HEMOGLOBIN CONCENTRATION / MEAN CORPUSCULAR VOLUME / MONOCYTE / NEUTROPHIL / NUCLEATED RED BLOOD CELLS / PLATELET COUNT: tissue Blood; for ALANINE AMINOTRANSFERASE / ALBUMIN / ALKALINE PHOSPHATASE / ASPARTATE AMINOTRANSFERASE / BLOOD UREA NITROGEN / CARBON DIOXIDE / CHLORIDE / CHOLESTEROL / CREATINE PHOSPHOKINASE / CREATININE / GLUCOSE / LACTATE DEHYDROGENASE / LIPASE / PHOSPHORUS / POTASSIUM / SODIUM / TOTAL BILIRUBIN / TOTAL PROTEIN / URIC ACID: tissue Plasma
[1] = 10 mg/kg, 120 h, dose level Low, time 5 day
[2] = 1100 mg/kg, 72 h, dose level High, time 3 day
[3] = 1100 mg/kg, 120 h, dose level High, time 5 day

COCCOC(=O)C1=C(C)NC(C)=C(C(=O)OC(C)C)C1c1cccc([N+](=O)[O-])c1 (centres undefined) [NIMODIPINE]
ABSOLUTE BASOPHIL [1]: 0 CELLS/uL | ABSOLUTE EOSINOPHIL [1]: 0 CELLS/uL | ABSOLUTE LYMPHOCYTE [1]: 13499.67 CELLS/uL | ABSOLUTE MONOCYTE [1]: 96.33 CELLS/uL | ABSOLUTE SEGMENTED NEUTROPHIL [1]: 1037.33 CELLS/uL | BASOPHIL [1]: 0% | EOSINOPHIL [1]: 0% | ERYTHROCYTE COUNT [1]: 5.7 x10E6/uL | HEMATOCRIT [1]: 36.23% | HEMOGLOBIN [1]: 13.9 G/DL | LEUKOCYTE COUNT [1]: 14.63 x10E3/uL | LYMPHOCYTE [1]: 92.67% | MEAN CORPUSCULAR HEMOGLOBIN [1]: 24.4 pg | MEAN CORPUSCULAR HEMOGLOBIN CONCENTRATION [1]: 38.37 G/DL | MEAN CORPUSCULAR VOLUME [1]: 63.63 fL | MONOCYTE [1]: 0.67% | NEUTROPHIL [1]: 6.67% | NUCLEATED RED BLOOD CELLS [1]: 0 /100WBC | PLATELET COUNT [1]: 940 x10E3/uL | ALANINE AMINOTRANSFERASE [1]: 59.33 u/L | ALBUMIN [1]: 4.3 G/DL | ALKALINE PHOSPHATASE [1]: 389.33 u/L | ASPARTATE AMINOTRANSFERASE [1]: 102.33 u/L | BLOOD UREA NITROGEN [1]: 15 mg/dL | CARBON DIOXIDE [1]: 31.67 mmol/L | CHLORIDE [1]: 100 MEQ/L | CHOLESTEROL [1]: 63 mg/dL | CREATINE PHOSPHOKINASE [1]: 716.33 u/L | CREATININE [1]: 0.16 mg/dL | GLUCOSE [1]: 145.33 mg/dL | LACTATE DEHYDROGENASE [1]: 194.33 u/L | LIPASE [1]: 9.33 u/L | PHOSPHORUS [1]: 10.4 mg/dL | POTASSIUM [1]: 5.95 MEQ/L | SODIUM [1]: 143.1 MEQ/L | TOTAL BILIRUBIN [1]: 0.23 mg/dL | TOTAL PROTEIN [1]: 6.2 G/DL | URIC ACID [1]: 0.83 mg/dL | ABSOLUTE BASOPHIL [2]: 0 CELLS/uL | ABSOLUTE EOSINOPHIL [2]: 0 CELLS/uL | ABSOLUTE LYMPHOCYTE [2]: 8640.33 CELLS/uL | ABSOLUTE MONOCYTE [2]: 0 CELLS/uL | ABSOLUTE SEGMENTED NEUTROPHIL [2]: 859.67 CELLS/uL | BASOPHIL [2]: 0% | EOSINOPHIL [2]: 0% | ERYTHROCYTE COUNT [2]: 6.21 x10E6/uL | HEMATOCRIT [2]: 37.2% | HEMOGLOBIN [2]: 14.77 G/DL | LEUKOCYTE COUNT [2]: 9.5 x10E3/uL | LYMPHOCYTE [2]: 91% | MEAN CORPUSCULAR HEMOGLOBIN [2]: 23.77 pg | MEAN CORPUSCULAR HEMOGLOBIN CONCENTRATION [2]: 39.7 G/DL | MEAN CORPUSCULAR VOLUME [2]: 59.87 fL | MONOCYTE [2]: 0% | NEUTROPHIL [2]: 9% | NUCLEATED RED BLOOD CELLS [2]: 0.33 /100WBC | PLATELET COUNT [2]: 1341.67 x10E3/uL | ALANINE AMINOTRANSFERASE [2]: 90 u/L | ALBUMIN [2]: 4.17 G/DL | ALKALINE PHOSPHATASE [2]: 427.67 u/L | ASPARTATE AMINOTRANSFERASE [2]: 82.67 u/L | BLOOD UREA NITROGEN [2]: 13 mg/dL | CARBON DIOXIDE [2]: 27.33 mmol/L | CHLORIDE [2]: 97.67 MEQ/L | CHOLESTEROL [2]: 77.67 mg/dL | CREATINE PHOSPHOKINASE [2]: 248.33 u/L | CREATININE [2]: 0.17 mg/dL | GLUCOSE [2]: 211.67 mg/dL | LACTATE DEHYDROGENASE [2]: 205.33 u/L | LIPASE [2]: 11.33 u/L | PHOSPHORUS [2]: 10.23 mg/dL | POTASSIUM [2]: 4.32 MEQ/L | SODIUM [2]: 139.8 MEQ/L | TOTAL BILIRUBIN [2]: 0.4 mg/dL | TOTAL PROTEIN [2]: 6.33 G/DL | URIC ACID [2]: 0.47 mg/dL | ABSOLUTE BASOPHIL [3]: 0 CELLS/uL | ABSOLUTE EOSINOPHIL [3]: 0 CELLS/uL | ABSOLUTE LYMPHOCYTE [3]: 5312.67 CELLS/uL | ABSOLUTE MONOCYTE [3]: 159.33 CELLS/uL | ABSOLUTE SEGMENTED NEUTROPHIL [3]: 1728 CELLS/uL | BASOPHIL [3]: 0% | EOSINOPHIL [3]: 0% | ERYTHROCYTE COUNT [3]: 7.19 x10E6/uL | HEMATOCRIT [3]: 42.83% | HEMOGLOBIN [3]: 16.87 G/DL | LEUKOCYTE COUNT [3]: 7.2 x10E3/uL | LYMPHOCYTE [3]: 75.67% | MEAN CORPUSCULAR HEMOGLOBIN [3]: 23.43 pg | MEAN CORPUSCULAR HEMOGLOBIN CONCENTRATION [3]: 39.33 G/DL | MEAN CORPUSCULAR VOLUME [3]: 59.63 fL | MONOCYTE [3]: 2% | NEUTROPHIL [3]: 22.33% | NUCLEATED RED BLOOD CELLS [3]: 0 /100WBC | PLATELET COUNT [3]: 1410 x10E3/uL | ALANINE AMINOTRANSFERASE [3]: 65.33 u/L | ALBUMIN [3]: 4 G/DL | ALKALINE PHOSPHATASE [3]: 160 u/L | ASPARTATE AMINOTRANSFERASE [3]: 89.33 u/L | BLOOD UREA NITROGEN [3]: 43.67 mg/dL | CARBON DIOXIDE [3]: 34.33 mmol/L | CHLORIDE [3]: 84 MEQ/L | CHOLESTEROL [3]: 75 mg/dL | CREATINE PHOSPHOKINASE [3]: 283.67 u/L | CREATININE [3]: 0.22 mg/dL | GLUCOSE [3]: 198.67 mg/dL | LACTATE DEHYDROGENASE [3]: 180 u/L | LIPASE [3]: 12.33 u/L | PHOSPHORUS [3]: 9.97 mg/dL | POTASSIUM [3]: 3.85 MEQ/L | SODIUM [3]: 133.83 MEQ/L | TOTAL BILIRUBIN [3]: 0.3 mg/dL | TOTAL PROTEIN [3]: 6.2 G/DL | URIC ACID [3]: 0.3 mg/dL
